One test concerns the target T1, NEMO (Homo sapiens, UniProt Q9Y6K9).
T1 construct: bacterially expressed version of full length NEMO fused at its NH2-terminus to glutathione S-transferase; made in house; host or cells: bacteria (pGEX-4T1)
In words: GST pull-down of IKKβ NBD mutants by GST-NEMO. It is filed as binding. Particulars: GST pulldown assay; NBD mutations in IKKβ. An excerpt:
To identify the NEMO-interacting domain of IKKβ we performed in vitro pull down assays (Zhong et al., (1997) Cell 89, 413-424) using a bacterially expressed version of full length NEMO fused at its NH2-terminus to glutathione S-transferase (GST-NEMO; FIG. 1A). Various truncation mutants lacking different functional domains of IKKβ (catalytic domain, leucine zipper and helix-loop-helix; FIG. 1A) were constructed.
These mutants were labeled by in vitro translation with [^35S]-methionine (input; FIG. 1B), mixed with either GST alone or GST-NEMO, and precipitated using glutathione-agarose. […]
Further mutations in the NBD were analyzed (see Table 1) for their ability to affect NEMO binding to IKKβ using the GST pulldown assay explained in Example 3.

For test [1], the system named is mice (lethal Salmonella typhimurium LPS challenge). In words: Lethal lipopolysaccharide mouse model. It counts as in vivo, male C57BL/6 mice. How it is done:
In this experiment, the ability of anti-inflammatory compounds of the invention to rescue mice challenged with a lethal amount of lipopolysaccharide (LPS) was assessed. LPS is a bacterial product that induces many of the responses that are seen in septic patients, including death. In this model, Salmonella typhimurium LPS in phosphate-buffered […] (PBS) was administered to male C57BL/6 mice by intravenous injection at a dose of 30 mg/kg (600 μg/20 g mouse). This dose was established in control experiments to be lethal in 100% of the mice that received it. Mice were treated with the test peptide by intravenous injection (in 1% dimethyl sulfoxide in PBS) immediately prior to the LPS injection and 24 hours after the LPS injection. Mice were monitored twice daily for up to 8 days after receiving LPS and the duration of survival and the number of surviving mice were recorded.

Test [2] deals with mice (Concanavalin A-induced hepatitis). The test can be described thus: Concanavalin A-induced hepatitis in mice. It counts as in vivo, male C57BL/6 mice. Particulars: for ALT / AST: serum 18-24 h, mean±SEM. How it is done: Forty male C57BL/6 mice weighing between 18 g and 22 g were divided into five treatment groups of eight mice each as shown below.
The mice were placed in a restrainer and injected intravenously (i.v.) in the tail with a test peptide or vehicle in 1% DMSO in PBS. The mice were then immediately injected i.v. with 15 mg/kg of concanavalin A dissolved in sterile PBS. The injection volume was 5 ml/kg (100 μI/20 g mouse) with a concanavalin A concentration of 3.0 mg/ml. The next morning (18-24 hours later), these mice were euthanized by CO2 inhalation and blood was collected by cardiac puncture. The serum was then separated and analyzed for AST and ALT.
ALT and AST values are given as Sigma-Frankel units/ml, mean±SEM.

For test [3], the system named is mice (PMA-induced ear edema). In words: PMA-induced ear edema in mice. It counts as in vivo. Particulars: topical 40 μg/ear, 30 min before and after PMA 5 μg/ear, 6 h. How it is done: The NBD peptide was tested for its ability to inhibit inflammatory responses in animals using two distinct models of acute inflammation. In the first model, ear edema was induced in mice using phorbol-12-myristate-13-acetate (PMA) and the effects of topical administration of the NBD peptides were measured. Ear edema using PMA was induced in replicate groups of age and sex matched mice as previously described (Chang et al., (1987) Eur. J. Pharmacol. 142, 197-205). Twenty μl of either NBD peptides (200 μg/ear), dexamethasone (40 μg/ear) or vehicle (DMSO:Ethanol; 25:75 v/v) was applied topically to the right ear of mice thirty minutes before and thirty minutes after the application of 20 μl of PMA (5 μg/ear) dissolved in ethanol. Ear swelling was measured six hours after PMA application using a microgauge and expressed as the mean difference in thickness between the treated (right) and untreated (left) ears. Statistical analysis of the data was performed using the students t-test. A value of p<0.05 was considered statistically significant.

The test system of test [4] is mice (zymosan-induced peritonitis). The test can be described thus: Zymosan-induced peritonitis in mice. It counts as in vivo, mice (C57BL/6NCR). Particulars: dexamethasone 100 mg/ml i.p. with zymosan. How it is done:
In a second model, peritonitis was induced in mice by intraperitoneal (i.p.) injection of zymosan either alone or in combination with dexamethasone or the NBD peptides. For zymosan-induced peritonitis, measurement of peritoneal exudates and inflammatory cell collections from replicate groups of age and sex matched mice (C57BL/6NCR) were performed as previously described (Getting et al., (1998) Immunology 95, 625-630). Groups of animals were injected concomitantly with one ml zymosan (1 mg/ml) and either dexamethasone (100 mg/ml) or the NBD peptides (200 mg/ml). The concentration of NOX (nitrate plus nitrite) present in the inflammatory exudates was measured using a colorimetric assay kit (Alexis Corporation) according to the manufacturers protocol.

Setting [5] is: dose 5 mg/kg i.v., number dosed 7, LPS 30 mg/kg i.v.
[6] abbreviates: dose 5 mg/kg i.v., number dosed 8, LPS 30 mg/kg i.v.
Where [7] appears, read: dose 1 mg/kg i.v., number dosed 8, LPS 30 mg/kg i.v.
Setting [8] is: concanavalin A 15 mg/kg i.v. + 0.5 mg/kg i.v.
The mark [9] stands for this setting: concanavalin A 15 mg/kg i.v. + 1 mg/kg i.v.
Where [10] appears, read: concanavalin A 15 mg/kg i.v. + 5 mg/kg i.v.

Values joined by “and” are separate entries in the source; they are usually repeats but may differ in a detail not shown here. Identical values can stand only once. [ ]: non-standard residue; d: D form.

The source of these data is US8242240B2, “Anti-inflammatory compounds and uses thereof” (Yale University, priority 2000, dated 2012).

T1 sequence (Q9Y6K9 whole entry, the tested form may be a part): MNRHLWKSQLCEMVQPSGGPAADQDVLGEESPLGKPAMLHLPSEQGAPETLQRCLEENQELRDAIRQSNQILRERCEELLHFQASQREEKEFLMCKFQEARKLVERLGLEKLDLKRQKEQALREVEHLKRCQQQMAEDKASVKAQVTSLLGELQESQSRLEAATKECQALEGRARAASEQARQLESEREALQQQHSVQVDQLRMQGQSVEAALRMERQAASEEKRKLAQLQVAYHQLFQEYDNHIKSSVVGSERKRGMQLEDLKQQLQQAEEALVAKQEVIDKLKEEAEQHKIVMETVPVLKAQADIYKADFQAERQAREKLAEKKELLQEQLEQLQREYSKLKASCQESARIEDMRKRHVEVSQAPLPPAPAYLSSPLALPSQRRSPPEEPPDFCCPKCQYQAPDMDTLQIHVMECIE

Take “LDASWL (Description of Artificial Sequence: Synthetic NBD peptide)”: in the test with NEMO, the “Binds to NEMO” value is given as “no”. As for “H-YGRKKRRQRRRTALDWSWLQTE-NH2 [compound 2]”, the “survival (day five), number of mice surviving” value (“survival (day five), number” for short) in test [1] (setting [5]) is 7; in test [1] (setting [6]) it was 4. Consider “LAWSWL (Description of Artificial Sequence: Synthetic NBD peptide)”, for which the “Binds to NEMO” value with NEMO was “no”. As to “H-rrrrrrrTALDWSWLQTE-NH2 (H-[dR][dR][dR][dR][dR][dR][dR]TALDWSWLQTE-NH2; SMILES CC(C)C[C@H](NC(=O)[C@H](C)NC(=O)[C@@H](NC(=O)[C@@H](CCCNC(=N)N)NC(=O)[C@@H](CCCNC(=N)N)NC(=O)[C@@H](CCCNC(=N)N)NC(=O)[C@@H](CCCNC(=N)N)NC(=O)[C@@H](CCCNC(=N)N)NC(=O)[C@@H](CCCNC(=N)N)NC(=O)[C@H](N)CCCNC(=N)N)[C@@H](C)O)C(=O)N[C@@H](CC(=O)O)C(=O)N[C@@H](Cc1c[nH]c2ccccc12)C(=O)N[C@@H](CO)C(=O)N[C@@H](Cc1c[nH]c2ccccc12)C(=O)N[C@@H](CC(C)C)C(=O)N[C@@H](CCC(N)=O)C(=O)N[C@H](C(=O)N[C@@H](CCC(=O)O)C(N)=O)[C@@H](C)O) [compound 3]”, the “survival (day five), number” value in test [1] (setting [5]) is 7; in test [1] (setting [6]), 5 and 8.

For the compound H-YGRKKRRQRRRLDWSWL-NH2 [compound 11], the “survival (day five), number” value in test [1] (setting [6]) was found to be 6. On to “H-yaraarraarrLDWSWL-NH2 (H-[dY][dA][dR][dA][dA][dR][dR][dA][dA][dR][dR]LDWSWL-NH2; SMILES CC(C)C[C@H](NC(=O)[C@H](Cc1c[nH]c2ccccc12)NC(=O)[C@H](CO)NC(=O)[C@H](Cc1c[nH]c2ccccc12)NC(=O)[C@H](CC(=O)O)NC(=O)[C@H](CC(C)C)NC(=O)[C@@H](CCCNC(=N)N)NC(=O)[C@@H](CCCNC(=N)N)NC(=O)[C@@H](C)NC(=O)[C@@H](C)NC(=O)[C@@H](CCCNC(=N)N)NC(=O)[C@@H](CCCNC(=N)N)NC(=O)[C@@H](C)NC(=O)[C@@H](C)NC(=O)[C@@H](CCCNC(=N)N)NC(=O)[C@@H](C)NC(=O)[C@H](N)Cc1ccc(O)cc1)C(N)=O) [compound 10]”, for which the “survival (day five), number” value in test [1] (setting [7]) was 5; in test [1] (setting [6]), 8 and 6. The “liver injury by concanavalin A, gross pathology” value in test [2] (5 mg/kg) is recorded as “prevented”. Further, the “protection against concanavalin A-induced liver damage” value in test [2] (5 mg/kg) is on record as “able to protect”. For the same compound, the ALT in test [2] (setting [8]) came out at 1919 ± 234 Sigma-Frankel units/ml; in test [2] (setting [9]), 1910 ± 281 Sigma-Frankel units/ml; in test [2] (setting [10]), 72 ± 19 Sigma-Frankel units/ml. Moreover, the AST in test [2] (setting [8]) is reported as 1217 ± 192 Sigma-Frankel units/ml; in test [2] (setting [9]), 1264 ± 270 Sigma-Frankel units/ml; in test [2] (setting [10]), 99 ± 14 Sigma-Frankel units/ml. Turning to LDFSWL, the “Binds to NEMO” value on NEMO is given as “yes”. On to “H-rrrrrrrLDWSWL-NH2 (H-[dR][dR][dR][dR][dR][dR][dR]LDWSWL-NH2; SMILES CC(C)C[C@H](NC(=O)[C@H](Cc1c[nH]c2ccccc12)NC(=O)[C@H](CO)NC(=O)[C@H](Cc1c[nH]c2ccccc12)NC(=O)[C@H](CC(=O)O)NC(=O)[C@H](CC(C)C)NC(=O)[C@@H](CCCNC(=N)N)NC(=O)[C@@H](CCCNC(=N)N)NC(=O)[C@@H](CCCNC(=N)N)NC(=O)[C@@H](CCCNC(=N)N)NC(=O)[C@@H](CCCNC(=N)N)NC(=O)[C@@H](CCCNC(=N)N)NC(=O)[C@H](N)CCCNC(=N)N)C(N)=O) [compound 8]”, for which the “survival (day five), number” value in test [1] (setting [7]) was 0; in test [1] (setting [6]), 7 and 8. In the case of “LEWSWL (Description of Artificial Sequence: Synthetic NBD peptide)”, in the test with NEMO, the “Binds to NEMO” value is “yes”. Same read-out and setting: with “LDWSYL (Description of Artificial Sequence: Synthetic NBD peptide)” the entry was “no”.

In the case of “H-rrmkwkkLDWSWL-NH2 (H-[dR][dR][dM][dK][dW][dK][dK]LDWSWL-NH2; SMILES CSCC[C@@H](NC(=O)[C@@H](CCCNC(=N)N)NC(=O)[C@H](N)CCCNC(=N)N)C(=O)N[C@H](CCCCN)C(=O)N[C@H](Cc1c[nH]c2ccccc12)C(=O)N[C@H](CCCCN)C(=O)N[C@H](CCCCN)C(=O)N[C@@H](CC(C)C)C(=O)N[C@@H](CC(=O)O)C(=O)N[C@@H](Cc1c[nH]c2ccccc12)C(=O)N[C@@H](CO)C(=O)N[C@@H](Cc1c[nH]c2ccccc12)C(=O)N[C@@H](CC(C)C)C(N)=O) [compound 7]”, the “survival (day five), number” value in test [1] (setting [6]) is reported as 8. Consider LDWAWL, for which the “Binds to NEMO” value at NEMO is on record as “yes”. Same read-out and setting: the same measure for “LDWSWA (Description of Artificial Sequence: Synthetic NBD peptide)”: “yes”. Still for that read-out and setting: with ADWSWL the entry was “yes”. Regarding “H-YARKARRQARRTALDWSWLQTE-NH2 [compound 4]”, the “survival (day five), number” value in test [1] (setting [6]) was 0. Regarding `C[C@@H]1C[C@H]2[C@@H]3CCC4=CC(=O)C=C[C@]4(C)[C@@]3(F)[C@@H](O)C[C@]2(C)[C@@]1(O)C(=O)CO` [dexamethasone], the “inhibition of PMA-induced ear thickening” value in test [3] is given as 82%. Moreover, the “reduction of NOX in peritoneal exudates” value in test [4] is listed as 86±7%.

As for “LDWSWL (Description of Artificial Sequence: Synthetic NBD peptide)”, in the test with NEMO, the “Binds to NEMO” value was “yes”. In the case of “LDYSWL (Description of Artificial Sequence: Synthetic NBD peptide)”, the “Binds to NEMO” value with NEMO is on record as “yes”.

In the case of “LDWSFL (Description of Artificial Sequence: Synthetic NBD peptide)”, the “Binds to NEMO” value with NEMO is listed as “yes”. H-RRMKWKKTALDWSWLQTE-NH2 [compound 1]: the “survival (day five), number” value in test [1] (setting [5]) is reported as 1. As for H-RRMKWKKLDWSWL-NH2 [compound 6], the “survival (day five), number” value was 0 in test [1] (setting [7]); 7 and 5 and 4 and 8 in test [1] (setting [6]).

As to “H-YARAARRAARRTALDWSWLQTE-NH2 [compound 5]”, in test [1] (setting [7]), the “survival (day five), number” value was determined as 4. For “LDWSAL (Description of Artificial Sequence: Synthetic NBD peptide)”, the “Binds to NEMO” value in the test with NEMO is listed as “no”. With “LDWEWL (Description of Artificial Sequence: Synthetic NBD peptide)”, in the test with NEMO, the “Binds to NEMO” value is “yes”. Still for that read-out and setting: the same measure for “LNWSWL (Description of Artificial Sequence: Synthetic NBD peptide)”: “yes”.

With H-YARAARRAARRLDWSWL-NH2 [compound 9], the “survival (day five), number” value was 0 in test [1] (setting [7]); 6 and 8 in test [1] (setting [6]).

“LDASAL (Description of Artificial Sequence: Synthetic NBD peptide)”: in the test with NEMO, the “Binds to NEMO” value is listed as “no”.
